The structures appear in SMILES notation.

In test [1] the target is T1, IRAK3 (Homo sapiens, UniProt Q9Y616).
T1 sequence (Q9Y616 1-596): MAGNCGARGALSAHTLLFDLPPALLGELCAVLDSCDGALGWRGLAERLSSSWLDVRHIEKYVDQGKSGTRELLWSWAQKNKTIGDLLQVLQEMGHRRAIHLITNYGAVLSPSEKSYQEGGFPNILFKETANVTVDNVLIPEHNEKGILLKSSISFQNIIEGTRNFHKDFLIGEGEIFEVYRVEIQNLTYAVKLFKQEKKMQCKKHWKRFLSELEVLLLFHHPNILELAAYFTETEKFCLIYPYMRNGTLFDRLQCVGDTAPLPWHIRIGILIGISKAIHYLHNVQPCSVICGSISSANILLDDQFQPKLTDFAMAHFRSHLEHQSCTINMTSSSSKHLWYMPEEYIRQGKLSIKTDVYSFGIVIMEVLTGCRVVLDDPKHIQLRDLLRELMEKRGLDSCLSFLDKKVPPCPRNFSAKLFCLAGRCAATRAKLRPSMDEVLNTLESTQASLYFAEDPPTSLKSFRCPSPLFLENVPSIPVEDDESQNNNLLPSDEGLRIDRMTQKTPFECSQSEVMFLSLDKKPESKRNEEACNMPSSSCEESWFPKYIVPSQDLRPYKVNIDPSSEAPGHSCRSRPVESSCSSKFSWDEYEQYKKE
The test can be described thus: IRAK3 biochemical binding assay (LanthaScreen Eu Kinase Binding, TR-FRET). The following applies: 10 nM tracer, 10 nM IRAK3, 1 hour at room temperature. How it is done:
Example B3. IRAK3 Biochemical Binding Assay
The LanthaScreen® Eu Kinase Binding assay was performed as described by the vendor (ThermoFisher Scientific Waltham, MA). Briefly, 100× solutions of compound were prepared in DMSO via serial dilution of the 10 mM stock solution in a 384-well reagent plate using 3-fold intervals to achieve final concentrations. 1 μL of the compound dilution series were added to the corresponding wells of a 384-well reagent plate containing 32.3 μL of 1× buffer (50 mM HEPES pH 7.4, […], 1 mM EGTA, 0.01% Brij-35). 5 μL of the buffer diluted compounds were transferred to the corresponding wells of a 384-well assay plate. 5 μL of 3× tracer was transferred to each well of the assay plate for a final tracer concentration of 10 nM. Finally, 5 μL of the 3× Eu-Anti-GST and IRAK3 mix was transferred to each well for a final concentration of 2 nM and 10 nM, respectively. Reactions were allowed to incubate for 1 hour at room temperature. TR-FRET signal of the interaction ([…]/λem 665/λem 615) was read at room temperature with a delay time of 100 μs and an integration time of 200 μs using an Envision plate reader. Background corrected emission signal ratios at each compound concentration were used to calculate percentage of inhibition (% o Inhibition). Plots of % Inhibition versus inhibitor concentrations were fit according to a dose-response equation (Eq. 1) to generate IC50 and Hill slope values using Dotmatics software (Dotmatics, Bishops Storford, Hertfordshire, England).
(§1) Using these assays, IC50, Dmax, EC50, and DC50 values of the following compounds were determined. Dmax is defined as the maximum percent degradation achieved and DC50 is the concentration at which 50% degradation is achieved.
In general terms: Time-resolved FRET reads energy transfer from a long-lived donor to a nearby acceptor.

Test [2] concerns the target T1, IRAK3. Briefly: IRAK endogenous HTRF degradation assay (Total-IRAK3 HTRF kit). Type of test: cell-based. Details: IRAK Endogenous HTRF Degradation Assay; endogenous in cells. The settings on record: endogenous IRAK3, overnight incubation; % Dmax = 100 − Ymin. The method, then: Example B2. IRAK Endogenous HTRF Degradation Assay
Cells (~50k) were plated in Cisbio 96-well low volume white plates (Cisbio: cat #66PL96005). Compounds were dissolved in DMSO and a 3-fold serial dilution was performed using a TECAN D300E. Cells were incubated with the compound overnight. Total-IRAK3 HTRF kit from Cisbio was used for degradation analysis (Cisbio: 63ADK101PEH). Cryptate and D2 antibodies were diluted in Detection buffer as per manufacturers recommendation. Then 2 μL of each solution was added to 16 μL lysate. Buffer control (lysis buffer detection buffer), Cryptate control (lysis buffer+cryptate antibody+detection buffer), and Negative control (lysis buffer+cryptate antibody+D2 antibody) were made as per manufacturers recommendation. Post incubation with antibodies the HTRF signal was measured using a Perkin Elmer Envision reader and the HTRF signal was calculated using formula: (Emission at 665 nm/Emission at 615 nm)*10,000. All HTRF values were normalized to the average value of DMSO. The average value of the DMSO control wells were set to equal 100% of the relative IRAK3 protein levels. Normalized luminescence values were plotted on a graph as a function of compound concentration. Compound concentration was plotted on the x-axis and the corresponding normalized IRAK3 protein levels on the y-axis. The EC50 value (the half-maximum effective concentration) of a compound for the degradation of the IRAK3 was calculated using a four-parameter logistic model (sigmoidal dose-response model) (FIT=(A+{(B−A)/1+[(C/x)D]})) where C is the inflection point (EC50), D is the […], and A and B are the low and high limits of the fit, respectively). The Ymin was calculated by determining the lowest percentage of target protein remaining following compound treatment. Dmax was calculated from Ymin (% Dmax=100−Ymin).
as §1

Turning to `C[C@@H](Oc1cc(-c2cnn(C3CCN(CCOCCOCCOCCNC(=O)COc4ccc5c(c4)C(=O)N(C4CCC(=O)NC4=O)C5=O)CC3)c2)cnc1N)c1c(Cl)ccc(F)c1Cl` (stereo partly drawn) [Compound 16, N-(2-(2-(2-(2-(4-(4-(6-amino-5-((R)-1-(2,6-dichloro-3-fluorophenyl)ethoxy)pyridin-3-yl)-1H-pyrazol-1-yl)piperidin-1-yl)ethoxy)ethoxy)ethoxy)ethyl)-2-((2-(2,6-dioxopiperidin-3-yl)-1,3-dioxoisoindolin-5-yl)oxy)acetamide], the IC50 on IRAK3 [1] came to 47 nM. The compound also showed a Dmax on IRAK3 [2] of 25%.

In the case of `Cc1ncsc1-c1ccc(CNC(=O)[C@@H]2C[C@@H](O)CN2C(=O)[C@@H](NC(=O)COCCOCCOCCOCCOCCOCCOCCN2CCC(n3cc(-c4cnc(N)c(O[C@H](C)c5c(Cl)ccc(F)c5Cl)c4)cn3)CC2)C(C)(C)C)cc1` [Compound 7, (2S,4R)-1-((S)-26-(4-(4-(6-amino-5-((R)-1-(2,6-dichloro-3-fluorophenyl)ethoxy)pyridin-3-yl)-1H-pyrazol-1-yl)piperidin-1-yl)-2-(tert-butyl)-4-oxo-6,9,12,15,18,21,24-heptaoxa-3-azahexacosanoyl)-4-hydroxy-N-(4-(4-methylthiazol-5-yl)benzyl)pyrrolidine-2-carboxamide], the IC50 on IRAK3 [1] worked out at 331 nM. On IRAK3 [2], this compound gave a Dmax of 50%.

On to `Cc1ncsc1-c1ccc(CNC(=O)[C@@H]2C[C@@H](O)CN2C(=O)[C@@H](NC(=O)CCCN2CCC(n3cc(-c4cnc(N)c(O[C@H](C)c5c(Cl)ccc(F)c5Cl)c4)cn3)CC2)C(C)(C)C)cc1` [Compound 1, (2S,4R)-1-((S)-2-(4-(4-(4-(6-amino-5-((R)-1-(2,6-dichloro-3-fluorophenyl)ethoxy)pyridin-3-yl)-1H-pyrazol-1-yl)piperidin-1-yl)butanamido)-3,3-dimethylbutanoyl)-4-hydroxy-N-(4-(4-methylthiazol-5-yl)benzyl)pyrrolidine-2-carboxamide], for which the half-inhibitory concentration (IC50) at IRAK3 [1] was found to be 111 nM. The compound also returned a maximal degradation (Dmax) at IRAK3 [2] of 41%.

For `Cc1ncsc1-c1ccc(CNC(=O)[C@@H]2C[C@@H](O)CN2C(=O)[C@@H](NC(=O)COCCOCCOCCOCCN2CCC(n3cc(-c4cnc(N)c(O[C@H](C)c5c(Cl)ccc(F)c5Cl)c4)cn3)CC2)C(C)(C)C)cc1` [Compound 4, (2S,4R)-1-((S)-17-(4-(4-(6-amino-5-((R)-1-(2,6-dichloro-3-fluorophenyl)ethoxy)pyridin-3-yl)-1H-pyrazol-1-yl)piperidin-1-yl)-2-(tert-butyl)-4-oxo-6,9,12,15-tetraoxa-3-azaheptadecanoyl)-4-hydroxy-N-(4-(4-methylthiazol-5-yl)benzyl)pyrrolidine-2-carboxamide], on IRAK3 [1], the IC50 was 120 nM. The same compound had a Dmax on IRAK3 [2] of 21%.

`Cc1ncsc1-c1ccc(CNC(=O)[C@@H]2C[C@@H](O)CN2C(=O)[C@@H](NC(=O)COCCOCCOCCN2CCC(n3cc(-c4cnc(N)c(O[C@H](C)c5c(Cl)ccc(F)c5Cl)c4)cn3)CC2)C(C)(C)C)cc1` [Compound 3, (2S,4R)-1-((S)-14-(4-(4-(6-amino-5-((R)-1-(2,6-dichloro-3-fluorophenyl)ethoxy)pyridin-3-yl)-1H-pyrazol-1-yl)piperidin-1-yl)-2-(tert-butyl)-4-oxo-6,9,12-trioxa-3-azatetradecanoyl)-4-hydroxy-N-(4-(4-methylthiazol-5-yl)benzyl)pyrrolidine-2-carboxamide] returned an IC50 on IRAK3 [1] of 186 nM. The same compound yielded a Dmax on IRAK3 [2] of 42%.

Take `C[C@@H](Oc1cc(-c2cnn(C3CCN(CCNC(=O)COc4ccc5c(c4)C(=O)N(C4CCC(=O)NC4=O)C5=O)CC3)c2)cnc1N)c1c(Cl)ccc(F)c1Cl` (stereo partly drawn) [Compound 13, N-(2-(4-(4-(6-amino-5-((R)-1-(2,6-dichloro-3-fluorophenyl)ethoxy)pyridin-3-yl)-1H-pyrazol-1-yl)piperidin-1-yl)ethyl)-2-((2-(2,6-dioxopiperidin-3-yl)-1,3-dioxoisoindolin-5-yl)oxy)acetamide]: at IRAK3 [1], the IC50 was 16 nM. Moreover, the Dmax on IRAK3 [2] was 65%.

Usually IC50 stands for the concentration at which inhibition is half-maximal. The Dmax is the greatest extent of degradation seen. Low readings indicate shallow degradation, high ones deep degradation.

The values above are taken from patent US20260234124A1, “Substituted Pyrazolyl-Pyridinyl Compounds as Ligand Directed Degraders of IRAK3” (Celgene Corporation, priority 2022, published 2026).
